Test results from US9732061B2, “Cinnoline derivatives useful as CB-1 receptor inverse agonists” (Janssen Pharmaceutica NV, priority 2015, dated 2017).

Assays:
[1] = target: Human CB1R (Cannabanoid receptor 1) (Homo sapiens (Human), UniProt P21554); assay: CB-1 in vitro cAMP (HTRF) assay; assay type: cell-based; conditions: HEK-293 cells stably transfected with human CB1R, 250 nM Forskolin, mean where tested more than once
Description: (§1) CB1 and CB2 receptors are Gi-coupled GPCR. Activation of CB1 and CB2 receptors results in a decrease in cAMP production. An inverse agonist of the CB1 or CB2 receptor results in the opposite effect, an increase of cAMP production. The principle of this assay is based on HTRF® technology (Homogeneous Time-Resolved Fluorescence). The method is a competitive immunoassay between native cAMP produced by cells and the cAMP labeled with the fluorophore d2. The tracer binding is quantified by a Mab anti-cAMP labeled with Eu3+TBP-NHS Cryptate (supplied as part of the assay kit). The specific signal (i.e. energy transfer) is inversely proportional to the concentration of cAMP in the standard or sample.
(§2) Biological Example 1: CB-1 and CB-2 In Vitro Assay
(§3) Human CB1R (Cannabanoid receptor 1) was stably transfected in HEK-293 cells (DiscoveRx, cat: 93-0200C1). Human CB2R (Cannabanoid receptor 2) was stably transfected in HEK-293 cells (DiscoveRx, cat: 93-0201C1). Cell cultures were maintained in media: DMEM (Invitrogen Cat#12430-054) supplemented with 10% HI FBS (Invitrogen Cat#16140-071), 1% L-glutamine (Invitrogen Cat#25030-081), 0.2 mg/ml Hygromycin B (Invitrogen Cat#10687-010), 600 μg/mL G418 (Invitrogen Cat#10131-035), and 1×Penn/Strep (Invitrogen 15140-122). After cell expansion, aliquots were cryo-stored in media containing 5% DMSO (Pierce Cat#20684).
(§4) One day prior to experiments media was warmed to 37° C. and the cryo-stored cells were thawed in a 37° C. water bath. The cells were then added to media (10× volume) and the mixture was centrifugated at 1000 RPM for 5 min. The supernate was removed and the cells were re-suspended in media. A sample of the cell suspension was evaluated on a Cedex XS automated cell counter (Innovatis Systems) to determine viable cells/ml. Additional media was added to the cells to achieve a final cell density of 4E5 cells/mL. The cells were then plated into 384 well PDL white solid bottom plates (Greiner, Cat#781945) at 20 μL per well using a Multidrop (Thermo Scientific). Cells were removed from Row P (location of cAMP standards). Two columns of cells were plated into a clear bottom 384 well PDL coated plate (Greiner, Cat#781944) to view confluence the day of the assay. The cell plates were lidded and stored for 15 minutes in a hood, then transferred to an incubator (37° C., 5% CO2, 95% humidity) overnight.
(§5) DMSO was added to all wells of 384 well V bottom polystyrene plate (Greiner, Cat#781280) except to columns 1 and 13, rows O and P and wells M13-M23 and N13-N23. Test compounds (60 μL, 10 mM) were added to Column 1 and 13 (A1 through N1 and A13 through L13). Test compounds were serially diluted 1/3 by transferring and mixing 20 μl sample with 40 μL DMSO.
(§6) DMSO (40 μL) was added to wells of 384 well V bottom polystyrene plate: O2 through O11, M14 through M23, N14 through N23, and O14 through O23. AM630 (also known as [6-iodo-2-methyl-1-[2-(4-morpholinyl)ethyl]-1H-indol-3-yl](4-methoxyphenyl)-methanone, Cayman Chemical, Cat#10006974) (60 μL, 10 mM) was added to O1; and 1-(2,4-dichlorophenyl)-7-[(4-fluorophenyl)methylene]-4,5,6,7-tetrahydro-N-1-piperidinyl-1H-indazole-3-carboxamide (60 μL, 10 mM) was added to N13. The control was serially diluted 1/3 by transferring and mixing 20 μl sample with 40 μL DMSO. This process resulted 11 doses per control, 10 mM to […].
(§7) Cells plated the day prior to the assay in clear bottom plates were viewed on an inverse microscope to ensure confluency in the range of 60-75%. […]

[2] = target: Human CB2R (Cannabanoid receptor 2) (Homo sapiens (Human), UniProt P34972); assay: CB-2 in vitro cAMP (HTRF) assay; assay type: cell-based; conditions: HEK-293 cells stably transfected with human CB2R, 250 nM Forskolin, mean where tested more than once
Human CB2R (Cannabanoid receptor 2), sequence (P34972 whole entry): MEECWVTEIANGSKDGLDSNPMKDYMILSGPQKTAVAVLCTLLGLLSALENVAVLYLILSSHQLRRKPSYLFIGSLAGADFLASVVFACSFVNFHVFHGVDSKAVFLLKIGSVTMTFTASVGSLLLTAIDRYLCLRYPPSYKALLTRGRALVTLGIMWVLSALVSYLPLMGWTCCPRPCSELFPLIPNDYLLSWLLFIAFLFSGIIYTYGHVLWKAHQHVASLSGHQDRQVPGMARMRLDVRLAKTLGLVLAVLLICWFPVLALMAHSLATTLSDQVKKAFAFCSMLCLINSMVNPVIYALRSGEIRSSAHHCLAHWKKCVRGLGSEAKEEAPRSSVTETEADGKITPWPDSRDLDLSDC
Description: as §1, §2, §3, §4, §5, §6, §7

Human CB1R (Cannabanoid receptor 1), sequence (P21554 whole entry): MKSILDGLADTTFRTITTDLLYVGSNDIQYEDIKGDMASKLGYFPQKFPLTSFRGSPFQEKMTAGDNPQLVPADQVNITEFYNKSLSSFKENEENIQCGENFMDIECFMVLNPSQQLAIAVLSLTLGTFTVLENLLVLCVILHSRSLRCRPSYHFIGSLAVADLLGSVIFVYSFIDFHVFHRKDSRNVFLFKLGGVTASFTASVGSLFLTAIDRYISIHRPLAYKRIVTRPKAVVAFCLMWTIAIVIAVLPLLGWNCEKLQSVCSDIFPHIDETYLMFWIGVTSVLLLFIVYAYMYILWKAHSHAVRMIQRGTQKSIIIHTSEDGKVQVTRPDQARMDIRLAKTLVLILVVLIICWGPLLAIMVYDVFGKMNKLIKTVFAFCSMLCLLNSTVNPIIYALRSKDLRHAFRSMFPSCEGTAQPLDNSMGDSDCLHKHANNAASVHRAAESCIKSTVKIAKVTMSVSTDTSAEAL

Row | EC50 [1] | EC50 [2] | SMILES
1 | 12 nM | > 10000 nM | FC(F)(F)c1cccc(CNc2cnnc3ccc(C(c4ccc(Cl)cc4)c4ccc(Cl)cc4)cc23)c1 [Compound 8, 6-(bis(4-chlorophenyl)methyl)-N-(3-(trifluoromethyl)benzyl)cinnolin-4-amine]
2 | 272 nM | 849 nM | O=S(=O)(c1ccccc1)N1CCC(Nc2cnnc3ccc(C(c4ccc(Cl)cc4)c4ccc(Cl)cc4)cc23)C1 (stereo not shown) [Compound 27, 6-(bis(4-chlorophenyl)methyl)-N-(1-(phenylsulfonyl)pyrrolidin-3-yl)cinnolin-4-amine]
3 | 219 nM | > 10000 nM | OC(c1ccc(Cl)cc1)(c1ccc(Cl)cc1)c1ccc2nncc(NCc3ccc(C(F)(F)F)cc3)c2c1 [Compound 7, bis(4-chlorophenyl)(4-((4-(trifluoromethyl)benzyl)amino)cinnolin-6-yl)methanol]
4 | 40 nM | > 10000 nM | FC(F)(F)c1ccc(CNc2cnnc3ccc(C(c4ccc(Cl)cc4)c4ccc(Cl)cc4)cc23)cc1 [Compound 9, 6-(bis(4-chlorophenyl)methyl)-N-(4-(trifluoromethyl)benzyl)cinnolin-4-amine]
5 | 643 nM | > 10000 nM | Clc1ccc(C(c2ccc(Cl)cc2)c2ccc3nncc(NC4CCN(CCc5ccccc5)CC4)c3c2)cc1 [Compound 30, 6-(bis(4-chlorophenyl)methyl)-N-(1-phenethylpiperidin-4-yl)cinnolin-4-amine]
6 | 5400 nM | 2790 nM | O=C(O)c1ccc(CCNc2cnnc3ccc(C(c4ccc(Cl)cc4)c4ccc(Cl)cc4)cc23)cc1 [Compound 37, 4-(2-(6-(bis(4-chlorophenyl)methyl)cinnolin-4-ylamino)ethyl)benzoic acid]
7 | 262 nM | 2140 nM | O=C(O)c1ccc(S(=O)(=O)N2CCC(Nc3cnnc4ccc(C(c5ccc(Cl)cc5)c5ccc(Cl)cc5)cc34)CC2)s1 [Compound 16, 5-(4-(6-(bis(4-chlorophenyl)methyl)cinnolin-4-ylamino)piperidin-1-ylsulfonyl)thiophene-2-carboxylic acid]
8 | 30 nM | > 10000 nM | O=S(=O)(N1CCC(Nc2cnnc3ccc(C(c4ccc(F)cc4)c4ccc(Cl)cc4)cc23)CC1)C(F)(F)F (stereo not shown) [Compound 34, 6-((4-chlorophenyl)(4-fluorophenyl)methyl)-N-(1-(trifluoromethylsulfonyl)piperidin-4-yl)cinnolin-4-amine]
9 | 10100 nM | 8100 nM | O=C(O)c1ccc(N2CCC(Nc3cnnc4ccc(C(c5ccc(Cl)cc5)c5ccc(Cl)cc5)cc34)CC2)cc1 [Compound 17, 4-(4-(6-(bis(4-chlorophenyl)methyl)cinnolin-4-ylamino)piperidin-1-yl)benzoic acid]
10 | 399 nM | 3690 nM | O=C(O)c1ccc(CN2CCC(Nc3cnnc4ccc(C(c5ccc(Cl)cc5)c5ccc(Cl)cc5)cc34)CC2)s1 [Compound 15, 5-((4-(6-(bis(4-chlorophenyl)methyl)cinnolin-4-ylamino)piperidin-1-yl)methyl)thiophene-2-carboxylic acid]
11 | 200 nM | > 10000 nM | CC(C)(C)OC(=O)N1CCC(Nc2cnnc3ccc(C(O)(c4ccc(Cl)cc4)c4ccc(Cl)cc4)cc23)CC1 [Compound 2, tert-butyl 4-((6-(bis(4-chlorophenyl)(hydroxy)methyl)cinnolin-4-yl)amino)piperidine-1-carboxylate]
12 | 95 nM | 1930 nM | O=S(=O)(N1CCC(Nc2cnnc3ccc(C(c4ccc(Cl)cc4)c4ccc(Cl)cc4)cc23)C1)C(F)(F)F (stereo not shown) [Compound 26, 6-(bis(4-chlorophenyl)methyl)-N-(1-(trifluoromethylsulfonyl)pyrrolidin-3-yl)cinnolin-4-amine]
13 | 463 nM | > 10000 nM | O=C(c1ccccc1)N1CCC(Nc2cnnc3ccc(C(c4ccc(Cl)cc4)c4ccc(Cl)cc4)cc23)CC1 [Compound 3, (4-((6-(bis(4-chlorophenyl)methyl)cinnolin-4-yl)amino)piperidin-1-yl)(phenyl)methanone]
14 | 35 nM | > 10000 nM | O=S(=O)(c1ccccc1)N1CCC(Nc2cnnc3ccc(C(c4ccc(Cl)cc4)c4ccc(Cl)cc4)cc23)CC1 [Compound 4, 6-(bis(4-chlorophenyl)methyl)-N-(1-(phenylsulfonyl)piperidin-4-yl)cinnolin-4-amine]
